Test results taken from US20230277508A1, “USE OF COMPOUND AS CYP2E1 INHIBITOR” (SHANGHAI LING XI BIOTECHNOLOGY DEVELOPMENT CO., LTD., priority 2020, published 2023).

Columns and labels:
[1] = tested on: liver fibrosis in mice induced by a high-fat diet; assay: Mouse liver fibrosis model induced by a high-fat diet; type: in vivo, C57/6J mice; settings: SMI0 30 and 150 mg/kg ig daily, 26 weeks, vs model group
Description: Experimental method: Male C57/6J mice were fed with a high-fructose, high-fat, and high-cholesterol feed to prepare mouse liver steatosis and hepatitis models, and a control group was fed with a low-fat and low-sugar control feed. An SMI0 intervention group was divided into a low-dose intervention group and a high-dose intervention group, which were intragastrically administered with the compound SMI0 at 30 mg/kg and 150 mg/kg every day from the beginning of modeling to the 26nd week of modeling. At the end of the 26-week experiment, blood was collected from the orbit, a body weight was measured, and then the mice each were sacrificed. The weight and appearance of a liver (color, texture, and presence or absence of nodules of the liver) were recorded. Some liver specimens were subjected to HE staining and then observed, and a steatosis score of mice in each group was recorded; and Masson staining was conducted to evaluate a liver fibrosis status of mice, and an oil red O staining area percentage was determined (model group, n=10 mice; SMI0 compound low-dose group, n=10 […]; and SMI0 compound high-dose group, n=10 […]).

[2] = tested on: ID-8 cells; assay: In vitro inhibition experiment on ID-8 cells; type: cell-based, murine; settings: 0 μM to 320 μM, 48 h
[3] = tested on: cognitive dysfunction in STZ-induced AD rat model; assay: STZ-induced AD rat model, Morris water maze; type: in vivo, SD rat; settings: for Number of crossing platform / Time spent in the platform quadrant: MWM spatial exploration; for Number of crossing platform / Time spent in the platform quadrant / Incubation period Day 1 / Incubation period Day 2 / Incubation period Day 3 / Incubation period Day 4 / Incubation period Day 5 / Incubation period Day 6: n=15; for Incubation period Day 1 / Incubation period Day 2 / Incubation period Day 3 / Incubation period Day 4 / Incubation period Day 5 / Incubation period Day 6: MWM
Description: Experimental method: A male SD rat AD model was constructed through bilateral intracerebroventricular injection of STZ, where STZ was injected at 3 mg/kg on day 1 and STZ was injected at 1.5 mg/kg on day 3. STZ was injected into bilateral cerebral ventricles (0.9 mm posterior to the anterior fontanelle, 1.5 mm at the left or right of the sagittal suture, and below the brain surface and 3.8 mm to the skull) by a brain stereotaxic instrument. The sham-operated group was injected with a same volume of a control solvent according to same operations. The low-dose and high-dose prevention and treatment groups were intragastrically administered with the compound SMI0 respectively at 10 mg/kg and 30 mg/kg starting from day 11 after modeling, and the administration was conducted consecutively for 21 d. On day 14 of the continuous administration (that is, on […] of modeling), the Morris water maze (MWM) was used to conduct spatial positioning navigation training consecutively for 6 d, and a spatial exploration experiment was conducted 24 h after the spatial positioning navigation training was completed (15 rats in each group).

[4] = tested on: other CYP enzymes; assay: Determination of selectivity of a CYP2E1 inhibitor: other CYP enzymes; type: biochemical; settings: mixed human liver microsome, probe substrates
Source text: With a mixed liver microsome of a healthy individual as a research object, probe drugs CYP1A2, CYP2A6, CYP2B6, CYP2C8, CYP2C9, CYP2C19, CYP2D6, CYP2E1, and CYP3A4 were selected to determine an in vitro inhibitory effect of an inhibitor to be tested on the metabolism of the probe drugs CYP1A2, CYP2A6, CYP2B6, CYP2C8, CYP2C9, CYP2C19, CYP2D6, CYP2E1, and CYP3A4 for the mixed liver microsome of the healthy human, and the selectivity of the inhibitor to be tested for a CYP2E1 inhibitory effect was evaluated.
The CYP1A2 probe is 6.25 μM to 800 μM phenacetin or 27.5 μM to 12,520 μM caffeine; • the CYP2A6 probe is 0.156 μM to 20 μM coumarin or 12.5 μM to 2,000 μM nicotine; • the CYP2B6 probe is 7.8 μM to 500 μM bupropion or 0.25 mM to 30 mM cyclophosphamide; • the CYP2C8 probe is 2.5 μM to 80 μM paclitaxel or 0.125 μM to 128 μM amodiaquine; • the CYP2C9 probe is 31.25 μM to 2,000 μM tolbutamide or 0.1 μM to 200 μM diclofenac; • the CYP2C19 probe is 3.9 μM to 500 μM omeprazole or 1.95 μM to 1,000 μM mephenytoin; • the CYP2D6 probe is 0.625 μM to 96 μM dextromethorphan or 0.0195 μM to 80 μM propafenone; and • the CYP3A4 probe is 0.39 μM to 50 μM midazolam or 1.98 μM to 1,000 μM testosterone.
An incubation system in a total volume of 100 μL was adopted, including a substrate, an inhibitor of different concentrations, a liver microsomal protein, and PBS. […]

CC(=O)c1scnc1C [SMI0]
liver fibrosis level in mice induced by a high-fat diet [1]: significantly reduce
inhibitory effect on ID-8 [2]: no significant inhibitory effect
Number of crossing platform ([3]; SMI0 10 mg/kg ig): 5.1
Time spent in the platform quadrant ([3]; SMI0 10 mg/kg ig): 29.4%
Number of crossing platform ([3]; SMI0 30 mg/kg ig): 8.2
Time spent in the platform quadrant ([3]; SMI0 30 mg/kg ig): 39.3%
Incubation period Day 1 ([3]; SMI0 10 mg/kg ig for 21 d): 95.7 s
Incubation period Day 2 ([3]; SMI0 10 mg/kg ig for 21 d): 61.1 s
Incubation period Day 3 ([3]; SMI0 10 mg/kg ig for 21 d): 39.5 s
Incubation period Day 4 ([3]; SMI0 10 mg/kg ig for 21 d): 33.2 s
Incubation period Day 5 ([3]; SMI0 10 mg/kg ig for 21 d): 23.1 s
Incubation period Day 6 ([3]; SMI0 10 mg/kg ig for 21 d): 18.5 s
Incubation period Day 1 ([3]; SMI0 30 mg/kg ig for 21 d): 94.6 s
Incubation period Day 2 ([3]; SMI0 30 mg/kg ig for 21 d): 52.7 s
Incubation period Day 3 ([3]; SMI0 30 mg/kg ig for 21 d): 35.9 s
Incubation period Day 4 ([3]; SMI0 30 mg/kg ig for 21 d): 25.2 s
Incubation period Day 5 ([3]; SMI0 30 mg/kg ig for 21 d): 20.0 s
Incubation period Day 6 ([3]; SMI0 30 mg/kg ig for 21 d): 18.6 s
improvement rate of ICV-STZ-induced cognitive dysfunction ([3]; SMI0 high-dose group (30 mg/kg), vs model group, significant): 46.7%
improvement rate of ICV-STZ-induced cognitive dysfunction ([3]; SMI0 low-dose group (10 mg/kg), without a significant statistical difference): 32.6%
inhibitory effect for other CYP enzymes [4]: no significant inhibitory effect
